Test results from patent US20240366648A1, “NAD-AUGMENTATION THERAPY FOR PARKINSON'S DISEASE” (Vestlandets Innovasjonsselskap AS (VIS), priority 2021, published 2024).

How the values were obtained:
[1] = tested on: total NAD in PBMCs; experiment: NAD measurement in PBMCs, NADMed method; type: in vivo, human
Excerpt: In addition to these analyses, we measured NAD levels in patient PBMC using a different approach (NADMed method). […] However, the trend was clear and convincing.
FIG. 16: NAD measurement in PBMCs from the study cohort, using the NADMed method.

[2] = tested on: patients with PD; experiment: MDS-UPDRS / Hoehn & Yahr clinical rating, phase I trial; type: in vivo, human
Description: A single-center, double-blinded, randomized, placebo-controlled phase I trial of oral NR supplementation in newly diagnosed patients with PD was conducted. […] Due to the early onset, this patient underwent genetic investigation with whole-exome sequencing and SNP-chip based genome-wide copy number variation analysis, which excluded pathogenic mutations in PD-related genes, including PINK1 and PRKN. screening. Patient recruitment, inclusion, and follow-up was carried out by a GCP certified investigator. Sample size of 30 participants was chosen based on previously reported brain metabolic network analyses. Thirty PD patients were randomly assigned (Block size 6, allocation 1:1) to 500 mg NR, provided in the form of nicotinamide riboside chloride ([…]® from Chromadex), or placebo twice per day, 12 hours apart, using the electronic Case Report Form (Viedoc.com). The drug containers were sequentially marked by an independent third party. The […]®) and placebo were provided by ChromaDex, USA. Each NR capsule contained 250 mg of NR. Placebo capsules contained microcrystalline cellulose. The vials and capsules containing NR and placebo were identical in shape, colour, and smell. Study drug compliance was calculated from counting returned number of study capsules and self-reporting. Participants, examining physicians, medical- and research personnel were blinded for the duration of the trial. Sample size was determined by comparing previous literature with respect to the primary objective. At screening for trial entry, candidates underwent physical and neurological examination, brain MRI, and […]. Eligible patients who entered the trial were assessed at baseline (visit 1, V1) and after four weeks of exposure to either NR or placebo (visit 2, V2). At both visits, patients underwent physical and neurological examination, including assessment by the Movement Disorder Society Unified Parkinson's Disease Rating Scale section I-IV (MDS-UPDRS), and biological sampling. MR-PET was performed within one week prior to visit 1, and at visit 2. All participants remained naïve for antiparkinson drugs for the duration of the trial. All clinical assessments were performed by a blinded movement disorders expert. Each patient was examined by the same neurologist at both visits. Methodological details on each procedure are provided below. Safety was monitored through routine clinical blood tests and registration of adverse events. Adverse events (AE) were recorded and scored by the investigative physician. […] The AE relation to the study drug was scored as (1) unrelated, (2) unlikely, (3) possible, (4) probable or (5) definitely. The between visit change ([visit 2]-[visit 1]) in MDS-UPDRS (total of subsections I-III; and individual subsections I, II and III) was compared between the NR and placebo groups using independent Student's t-test. In addition, the between visit change in MDS-UPDRS (total and subsections) within the NR, MRS-responder, and placebo groups was assessed by paired Student's t-test. For the 31P-MRS analyses, the change in measured metabolites between visit 1 and visit 2 was assessed in the placebo- and NR group using paired Student's t-test. In addition, the between-visit change in NAD/ATP-α was compared between the NR and placebo group by independent Student's t-test. For PET analyses, changes in network scores with treatment were evaluated for each group separately using paired Student's t-tests or permutation tests. Relationships between network values, NAD levels and MDS-UPDRS motor ratings or between treatment-related changes in these variables were evaluated using Pearson's product-moment correlations; Spearman rank-order correlation coefficients were computed for non-normal distributions of the variables. These statistical tests were performed using SPSS (SPSS Inc., Chicago, IL); results were considered significant for p≤0.05 (two-tailed). […]

[3] = Visit 1 (baseline), MRS Responders N=10
[4] = Visit 1 (baseline), NR group N=15
[5] = Visit 2 (after four weeks), MRS Responders N=10
[6] = Visit 2 (after four weeks), NR group N=15

## NC(=O)c1ccc[n+]([C@@H]2O[C@H](CO)[C@@H](O)[C@H]2O)c1 [NR, nicotinamide riboside]
[1]; NR group, did not reach statistical significance in paired t-test
  NAD levels in PBMC, between visits: increase
[1]; p=0.0256
  between visit change in PBMC NAD levels, NR vs placebo group: significantly higher increase
[2]; MRS-responder subgroup (n=10), paired t-test p=0.071
  mean decrease in MDS-UPDRS between visits: 1.9±2.78
[2]; NR 1000 mg daily, one month
  clinical change as measured by the UPDRS scale: mild clinical improvement
  motor symptoms in PD patients who received NR: no worsening of motor symptoms
[2]; [3]
  Hoehn & Yahr Stage, mean: 1.7
  MDS-UPDRS I, mean score: 6.2
  MDS-UPDRS II, mean score: 6.4
  MDS-UPDRS III, mean score: 29.6
  Total score MDS-UPDRS (I-III), mean: 42.2
[2]; [4]
  Hoehn & Yahr Stage, mean: 1.8
  MDS-UPDRS I, mean score: 6.3
  MDS-UPDRS II, mean score: 7.9
  MDS-UPDRS III, mean score: 31.1
  Total score MDS-UPDRS (I-III), mean: 45.2
[2]; [5]
  Hoehn & Yahr Stage, mean: 1.8
  MDS-UPDRS I, mean score: 5.3
  MDS-UPDRS II, mean score: 6.4
  MDS-UPDRS III, mean score: 28.7
  Total score MDS-UPDRS (I-III), mean: 40.4
[2]; [6]
  Hoehn & Yahr Stage, mean: 1.9
  MDS-UPDRS I, mean score: 5.4
  MDS-UPDRS II, mean score: 8.3
  MDS-UPDRS III, mean score: 30.5
  Total score MDS-UPDRS (I-III), mean: 44.1
[2]; nine individuals with >10% increase in cerebral NAD, paired t-test p=0.017
  mean decrease in MDS-UPDRS between visits: 2.33±2.35
